Assay results: patent US20210238139A1, “MODULATORS OF TRYPTOPHAN CATABOLISM” (E-Therapeutics PLC, priority 2018, published 2021)

Each compound was assayed on SK-OV-3 cells (assay: Effect of compounds on tryptophan catabolism in SK-OV-3 cell line (inhibition of kynurenine production, LC-MS/MS)). Conditions: Homo sapiens, SK-OV-3, 24 h, SK-OV-3 cell line, 24 h incubation, kynurenine in supernatant by LC-MS/MS; read-out: IC50 Ranges (ic50 values for inhibition of Kynurenine production).
Type: cell-based
Experimental: SK-OV-3 cells are seeded in 96-well plates in McCoy's 5A medium supplemented with 10% FBS and incubated overnight at 37° C., 5% CO2, 95% humidity. The […] growth medium is replaced with DMEM F-12 medium supplemented with 6 mg/mL L-tryptophan. Compounds are added to the wells and incubated for 24 h at 37° C., 5% CO2, 95% humidity. Compounds are tested at 8 consecutive 3-fold dilutions starting from 30 μM in duplicate. At the end of incubation, concentration of kynurenine in cell supernatants is […] determined by LC-MS/MS. In parallel, cell viability is assessed by measurement of ATP using CellTiter Glo assay (Promega), according to manufacturer's protocol. Inhibition of Kyn production is calculated using the following formula: […] IC50 ranges for compounds of the invention are presented in Table 2, whereby the IC50 ranges are as follows: • A: […]
In the case of `Cc1ccc(CN(C(=O)Nc2ccc(C#N)cc2)c2ccn(C)n2)o1` [Compound 221, 3-(4-cyanophenyl)-1-[(5-methyl-2-furyl)methyl]-1-(1-methylpyrazol-3-yl)urea], the IC50 is reported as 500 to 1000 nM.
In the case of `O=C(Nc1ccc(F)cc1)N(Cc1ccno1)C1CCCC1` [Compound 127, 1-cyclopentyl-3-(4-fluorophenyl)-1-(isoxazol-5-ylmethyl)urea], the IC50 is reported as > 5000 nM.
`CCCN(Cc1ccc(C)o1)C(=O)Nc1ccccc1` [Compound 166, 1-[(5-methyl-2-furyl)methyl]-3-phenyl-1-propyl-urea] was tested, and the IC50 was 500 to 1000 nM.
`O=C(Nc1ccc(Cl)cc1)N(Cc1ccncc1)C1CCCC1` [Compound 76, 3-(4-chlorophenyl)-1-cyclopentyl-1-(4-pyridylmethyl)urea] was tested, and the IC50 was 500 to 1000 nM.
`Cc1ccc(CN(C(=O)Nc2ccc(F)c(F)c2)C2CCCC2)o1` [Compound 31, 1-cyclopentyl-3-(3,4-difluorophenyl)-1-[(5-methyl-2-furyl)methyl]urea] showed an IC50 of 100 to 500 nM.
With `Cc1ccc(CN(C(=O)NCCc2ccccc2)C2CCCC2)o1` [Compound 181, 1-cyclopentyl-1-[(5-methyl-2-furyl)methyl]-3-(2-phenylethyl)urea] the IC50 was 1000 to 5000 nM.
`N#Cc1ccc(NC(=O)N(Cc2cn3ccccc3n2)C2CCC2)cc1` [Compound 210, 3-(4-cyanophenyl)-1-cyclobutyl-1-(imidazo[1,2-a]pyridin-2-ylmethyl)urea] showed an IC50 of 1000 to 5000 nM.
`C=CCNC(=O)N(Cc1cccs1)C1CCCC1` [Compound 15, 3-allyl-1-cyclopentyl-1-(2-thienylmethyl)urea] was tested, and the IC50 was 1000 to 5000 nM.
`O=C(Nc1cccnc1)N(Cc1cccs1)C1CCCC1` [Compound 57, 1-cyclopentyl-3-(3-pyridyl)-1-(2-thienylmethyl)urea] was tested, and the IC50 was > 5000 nM.
In the case of `N#Cc1ccc(NC(=O)N(Cc2cc3ccccn3n2)C2CCC2)cc1` [Compound 207, 3-(4-cyanophenyl)-1-cyclobutyl-1-(pyrazolo[1,5-a]pyridin-2-ylmethyl)urea], the IC50 is reported as 100 to 500 nM.
`O=C(Nc1ccncc1)N(Cc1cccc(C(F)(F)F)c1)C1CCCC1` [Compound 88, 1-cyclopentyl-3-(4-pyridyl)-1-[[3-(trifluoromethyl)phenyl]methyl]urea] showed an IC50 of 500 to 1000 nM.
Work on `Cc1ccc(NC(=O)N(Cc2cccs2)C2CCCC2)c(C)c1` [Compound 5, 1-cyclopentyl-3-(2,4-dimethylphenyl)-1-(2-thienylmethyl)urea] yielded an IC50 of 1000 to 5000 nM.
`Cc1oncc1N(Cc1ccnc(C(F)(F)F)c1)C(=O)Nc1ccc(C#N)cc1` [Compound 288, 3-(4-cyanophenyl)-1-(5-methylisoxazol-4-yl)-1-[[2-(trifluoromethyl)-4-pyridyl]methyl]urea] showed an IC50 of 1000 to 5000 nM.
`Cc1ccc(CN(C(=O)Nc2ccc(Cl)cc2)c2c(C)noc2C)o1` [Compound 238, 3-(4-chlorophenyl)-1-(3,5-dimethylisoxazol-4-yl)-1-[(5-methyl-2-furyl)methyl]urea] was tested, and the IC50 was 100 to 500 nM.
For `C#Cc1ccc(NC(=O)N(Cc2ccc(C)o2)C2COC2)cc1` [Compound 236, 3-(4-ethynylphenyl)-1-[(5-methyl-2-furyl)methyl]-1-(oxetan-3-yl)urea], the IC50 was 500 to 1000 nM.
For `C#Cc1ccc(NC(=O)N(Cc2ccnc(C(F)(F)F)c2)C2CCC2)cc1` [Compound 153, 1-cyclobutyl-3-(4-ethynylphenyl)-1-[[2-(trifluoromethyl)-4-pyridyl]methyl]urea], the IC50 was < 100 nM.
`Cc1ccc(CN(C(=O)Nc2ccc(C#N)cc2)c2ncnn2C)o1` [Compound 266, 3-(4-cyanophenyl)-1-[(5-methyl-2-furyl)methyl]-1-(2-methyl-1,2,4-triazol-3-yl) urea] gave an IC50 of 1000 to 5000 nM.
`Cc1ccc(CN(C(=O)Nc2ccc(C(N)=O)cc2)C2CCCC2)o1` [Compound 117, 4-[[cyclopentyl-[(5-methyl-2-furyl)methyl]carbamoyl]-amino]benzamide] was tested, and the IC50 was 1000 to 5000 nM.
With `N#Cc1ccc(NC(=O)N(Cc2ccc3ncoc3c2)C2CCC2)cc1` [Compound 209, 1-(1,3-benzoxazol-6-ylmethyl)-3-(4-cyanophenyl)-1-cyclobutyl-urea] the IC50 was 500 to 1000 nM.
Compound `CCc1ccc(NC(=O)N(Cc2cnn(C)c2Cl)C2CCCC2)cc1` [Compound 42, 1-[(5-chloro-1-methyl-pyrazol-4-yl)methyl]-1-cyclopentyl-3-(4-ethylphenyl)urea] has an IC50 of 100 to 500 nM.
For `Cc1ccc(CN(C(=O)Nc2ccc(Cl)cc2)c2cnoc2)o1` [Compound 305, 3-(4-chlorophenyl)-1-isoxazol-4-yl-1-[(5-methyl-2-furyl)methyl]urea], the IC50 was < 100 nM.
In the case of `Cc1ccc(CN(C(=O)Nc2ccc(N3CCCC3=O)cc2)C2CCCC2)o1` [Compound 103, 1-cyclopentyl-1-[(5-methyl-2-furyl)methyl]-3-[4-(2-oxopyrrolidin-1-yl)phenyl]urea], the IC50 is reported as 1000 to 5000 nM.
Work on `N#Cc1cccc(CN(C(=O)Nc2ccc(F)cc2)C2CCCC2)n1` [Compound 126, 1-[(6-cyano-2-pyridyl)methyl]-1-cyclopentyl-3-(4-fluorophenyl)urea] yielded an IC50 of 500 to 1000 nM.
`N#Cc1ccc(NC(=O)N(Cc2nc3c(s2)COCC3)C2CCCC2)cc1` [Compound 310, 3-(4-cyanophenyl)-1-cyclopentyl-1-(6,7-dihydro-4H-pyrano[4,3-d]thiazol-2-ylmethyl)urea] showed an IC50 of 1000 to 5000 nM.
In the case of `Cc1ncc(CN(C(=O)Nc2ccc(F)cc2)C2CCCC2)o1` [Compound 145, 1-cyclopentyl-3-(4-fluorophenyl)-1-[(2-methyloxazol-5-yl)methyl]urea], the IC50 is reported as 1000 to 5000 nM.
`O=C(Nc1ccc(Cl)cc1)N(Cc1nc2c(s1)COCC2)C1CCCC1` [Compound 311, 3-(4-chlorophenyl)-1-cyclopentyl-1-(6,7-dihydro-4H-pyrano[4,3-d]thiazol-2-ylmethyl)urea] was tested, and the IC50 was 100 to 500 nM.
For `CN1CCC(N(Cc2ccc3ncsc3c2)C(=O)Nc2ccc(C#N)cc2)CC1` [Compound 264, 1-(1,3-benzothiazol-6-ylmethyl)-3-(4-cyanophenyl)-1-(1-methyl-4-piperidyl) urea], the IC50 was > 5000 nM.
Compound `C#Cc1ccc(NC(=O)N(Cc2ccc(C)o2)C2CCCC2)nc1` [Compound 16, 1-cyclopentyl-3-(5-ethynyl-2-pyridyl)-1-[(5-methyl-2-furyl)methyl]urea] has an IC50 of 100 to 500 nM.
`CC1(CN(C(=O)Nc2ccccc2)C2CCCC2)CCN(C(=O)OC(C)(C)C)CC1` [Compound 77, tert-butyl 4-[[cyclopentyl(phenylcarbamoyl)amino]methyl]-4-methyl-piperidine-1-carboxylate] showed an IC50 of 100 to 500 nM.
For `C#Cc1ccc(NC(=O)N(Cc2ccno2)C2CCCC2)cc1` [Compound 163, 1-cyclopentyl-3-(4-ethynylphenyl)-1-(isoxazol-5-ylmethyl)urea], the IC50 was < 100 nM.
For `N#Cc1ccc(NC(=O)N(Cc2cn3ccncc3n2)C2CCC2)cc1` [Compound 211, 3-(4-cyanophenyl)-1-cyclobutyl-1-(imidazo[1,2-a]pyrazin-2-ylmethyl)urea], the IC50 was > 5000 nM.
With `Cc1ccc(CN(C(=O)Nc2ccc(-c3ccccc3)cc2)C2CCCC2)o1` [Compound 150, 1-cyclopentyl-1-[(5-methyl-2-furyl)methyl]-3-(4-phenylphenyl)urea] the IC50 was 100 to 500 nM.
With `CC1(CN(C(=O)Nc2ccc(Cl)cc2)C2CCCC2)CCNCC1` [Compound 87, 3-(4-chlorophenyl)-1-cyclopentyl-1-[(4-methyl-4-piperidyl)methyl]urea] the IC50 was > 5000 nM.
`Cc1ccc(CN(C(=O)Nc2ccc(C#N)cc2)C2CC(F)(F)C2)o1` [Compound 241, 3-(4-cyanophenyl)-1-(3,3-difluorocyclobutyl)-1-[(5-methyl-2-furyl)methyl]urea] showed an IC50 of 500 to 1000 nM.
For `Cc1ccc(CN(C(=O)Nc2ccc(F)cc2)c2ncco2)o1` [Compound 180, 3-(4-fluorophenyl)-1-[(5-methyl-2-furyl)methyl]-1-oxazol-2-yl-urea], the IC50 was > 5000 nM.
For `Cc1ccc(CN(C(=O)Nc2ccc(-n3cc(CO)nn3)cc2)C2CCCC2)o1` [Compound 164, 1-cyclopentyl-3-[4-[4-(hydroxymethyl)triazol-1-yl]phenyl]-1-[(5-methyl-2-furyl)methyl]urea], the IC50 was < 100 nM.
In the case of `O=C(Nc1ccc(Cl)cc1)N(Cc1cc2ncccc2o1)C1CCC1` [Compound 252, 3-(4-chlorophenyl)-1-cyclobutyl-1-(furo[3,2-b]pyridin-2-ylmethyl)urea], the IC50 is reported as > 5000 nM.
In the case of `Cc1ccc(CN(C(=O)Nc2ccc(C#N)cc2)c2ncccc2C)o1` [Compound 314, 3-(4-cyanophenyl) [(5-methyl-2-furyl)methyl]-1-(3-methyl-2-pyridyl)urea], the IC50 is reported as 100 to 500 nM.
With `Cc1ccc(CN(C(=O)Nc2ccncc2)C2CCCC2)o1` [Compound 81, 1-cyclopentyl-1-[(5-methyl-2-furyl)methyl]-3-(4-pyridyl)urea] the IC50 was 500 to 1000 nM.
`Cc1nocc1N(Cc1cccc(C#N)n1)C(=O)Nc1ccc(Cl)cc1` [Compound 313, 3-(4-chlorophenyl)-1-[(6-cyano-2-pyridyl)methyl]-1-(3-methylisoxazol-4-yl)urea] showed an IC50 of 100 to 500 nM.
`N#Cc1ccc(NC(=O)N(Cc2ccc3nsnc3c2)C2CCC2)cc1` [Compound 255, 1-(2,1,3-benzothiadiazol-5-ylmethyl)-3-(4-cyanophenyl)-1-cyclobutyl-urea] gave an IC50 of 100 to 500 nM.
`Cc1ccc(CN(C(=O)Nc2ccc(C#N)cc2)c2cnnn2C)o1` [Compound 268, 3-(4-cyanophenyl)-1-[(5-methyl-2-furyl)methyl]-1-(3-methyltriazol-4-yl)urea] showed an IC50 of 500 to 1000 nM.

Same assay, conditions: Homo sapiens, SK-OV-3, 24 h, read-out: IC50 Ranges (ic50 values for inhibition of Kynurenine production)
`Cc1ccc(CN(C(=O)Nc2ccc(C3CN(C(=O)OC(C)(C)C)C3)cc2)C2CCCC2)o1` [Compound 159, tert-butyl 3-[4-[[cyclopentyl-[(5-methyl-2-furyl)methyl]-carbamoyl]amino]phenyl]azetidine-1-carboxylate] was tested, and the IC50 was 1000 to 5000 nM.
